Measured values: ChEMBL document CHEMBL1909046, “DrugMatrix in vitro pharmacology data”

What was measured:
[1] = target: T1, 5-hydroxytryptamine receptor 2C (Homo sapiens, UniProt P28335); assay: DRUGMATRIX: Serotonin (5-Hydroxytryptamine) 5-HT2C radioligand binding (ligand: [3H] Mesulergine); type: cell membranes, CHO-K1, Membrane; conditions: cho-k1; Not Active = under 50% inhibition at 10 µM
T1 sequence (P28335 whole entry): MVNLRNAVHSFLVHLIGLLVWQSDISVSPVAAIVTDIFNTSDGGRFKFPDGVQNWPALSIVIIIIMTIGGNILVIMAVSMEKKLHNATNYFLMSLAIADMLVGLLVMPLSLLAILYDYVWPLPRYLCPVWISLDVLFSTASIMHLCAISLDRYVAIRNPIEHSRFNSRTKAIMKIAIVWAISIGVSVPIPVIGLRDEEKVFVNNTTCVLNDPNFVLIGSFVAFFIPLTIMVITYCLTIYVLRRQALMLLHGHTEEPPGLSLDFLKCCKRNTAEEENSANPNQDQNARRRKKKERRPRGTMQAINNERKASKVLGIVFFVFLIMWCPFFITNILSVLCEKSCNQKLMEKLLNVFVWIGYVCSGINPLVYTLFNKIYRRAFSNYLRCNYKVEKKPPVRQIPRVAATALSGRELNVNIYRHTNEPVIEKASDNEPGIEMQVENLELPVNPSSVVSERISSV

[2] = target: Sigma non-opioid intracellular receptor 1 (Homo sapiens, UniProt Q99720); assay: DRUGMATRIX: Sigma1 radioligand binding (ligand: [3H] Haloperidol); type: cell membranes, Jurkat, Membrane; conditions: jurkat; Not Active = under 50% inhibition at 10 µM
Cytochrome P450 2C9 = Cytochrome P450 2C9 (Homo sapiens, UniProt P11712); conditions: bti-tn-5b1-4; also: in other assays of this panel Not Active means under 50% inhibition at 10 µM
[3] = target: T2, Alpha-1B adrenergic receptor (Rattus norvegicus, UniProt P15823); assay: DRUGMATRIX: Alpha-1B adrenergic receptor radioligand binding (ligand: prazosin); type: cell membranes, Wistar, Liver, Membrane; conditions: Not Active = under 50% inhibition at 10 µM
T2 sequence (P15823 whole entry): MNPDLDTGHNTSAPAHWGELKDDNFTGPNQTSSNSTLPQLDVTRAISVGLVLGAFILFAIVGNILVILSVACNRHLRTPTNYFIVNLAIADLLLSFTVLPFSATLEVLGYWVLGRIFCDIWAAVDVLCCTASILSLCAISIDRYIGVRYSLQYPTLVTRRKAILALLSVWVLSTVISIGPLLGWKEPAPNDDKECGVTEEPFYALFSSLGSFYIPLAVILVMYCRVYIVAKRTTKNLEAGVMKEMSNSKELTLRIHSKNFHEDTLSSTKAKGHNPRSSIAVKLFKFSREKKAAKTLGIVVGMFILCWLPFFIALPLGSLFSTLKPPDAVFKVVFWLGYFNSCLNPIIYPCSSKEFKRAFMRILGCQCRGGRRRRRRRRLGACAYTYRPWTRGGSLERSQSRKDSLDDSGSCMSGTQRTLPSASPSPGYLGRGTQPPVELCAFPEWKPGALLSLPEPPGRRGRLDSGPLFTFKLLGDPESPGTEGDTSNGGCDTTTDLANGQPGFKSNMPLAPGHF

[4] = DRUGMATRIX: ATPase, Na+/K+ enzyme inhibition (substrate: ATP); type: tissue-based, Sus scrofa, Heart; conditions: Not Active = under 50% inhibition at 10 µM
Adenosine receptor A3 = target: T3, Adenosine receptor A3 (Homo sapiens, UniProt P0DMS8); type: cell membranes, CHO-K1, Membrane; conditions: cho-k1;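 also: radioligand binding assay with AB-MECA serving as the labeled ligand; in other assays of this panel Not Active means under 50% inhibition at 10 µM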
T3 sequence (P0DMS8 whole entry): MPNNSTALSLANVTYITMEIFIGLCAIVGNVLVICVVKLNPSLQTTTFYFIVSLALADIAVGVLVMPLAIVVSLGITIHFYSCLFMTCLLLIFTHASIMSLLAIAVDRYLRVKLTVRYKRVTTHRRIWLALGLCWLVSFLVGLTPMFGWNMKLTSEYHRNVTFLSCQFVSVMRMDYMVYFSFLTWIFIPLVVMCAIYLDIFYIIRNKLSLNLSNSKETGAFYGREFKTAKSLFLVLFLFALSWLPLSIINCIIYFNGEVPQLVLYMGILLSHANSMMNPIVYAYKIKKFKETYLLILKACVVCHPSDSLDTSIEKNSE

[5] = DRUGMATRIX: Calcium Channel Type L, Dihydropyridine radioligand binding (ligand: [3H] Nitrendipine); type: cell membranes, Rattus norvegicus, Wistar, Cerebral cortex, Membrane; conditions: Not Active = under 50% inhibition at 10 µM
[6] = DRUGMATRIX: GABAA, Muscimol, Central radioligand binding (ligand: [3H] Muscimol); type: cell membranes, Rattus norvegicus, Wistar, Brain, Membrane; conditions: Not Active = under 50% inhibition at 10 µM
Cytochrome P450 2D6 = Cytochrome P450 2D6 (Homo sapiens, UniProt P10635); conditions: bti-tn-5b1-4; also: in other assays of this panel Not Active means under 50% inhibition at 10 µM
Calcitonin receptor = target: T4, Calcitonin receptor (Homo sapiens, UniProt P30988); type: cell membranes, Membrane; conditions: t47d; also: in other assays of this panel Not Active means under 50% inhibition at 10 µM
T4 sequence (P30988 whole entry): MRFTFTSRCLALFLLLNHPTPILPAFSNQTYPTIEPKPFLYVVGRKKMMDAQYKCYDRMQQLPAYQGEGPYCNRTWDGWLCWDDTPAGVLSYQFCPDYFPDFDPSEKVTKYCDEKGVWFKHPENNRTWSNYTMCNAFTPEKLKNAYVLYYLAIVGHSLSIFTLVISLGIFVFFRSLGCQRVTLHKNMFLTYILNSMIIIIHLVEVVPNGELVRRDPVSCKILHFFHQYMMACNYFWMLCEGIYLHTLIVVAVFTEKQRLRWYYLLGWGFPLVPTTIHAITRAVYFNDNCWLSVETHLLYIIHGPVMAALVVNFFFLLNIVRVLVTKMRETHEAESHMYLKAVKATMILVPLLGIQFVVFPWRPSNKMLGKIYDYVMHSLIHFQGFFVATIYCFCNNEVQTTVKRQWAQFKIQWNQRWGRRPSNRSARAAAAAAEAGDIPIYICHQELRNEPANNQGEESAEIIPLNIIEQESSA

[7] = DRUGMATRIX: Tumor Necrosis Factor (TNF), Non-Selective radioligand binding (ligand: [125I] TNF-alpha); type: cell membranes, Membrane; conditions: u-937; Not Active = under 50% inhibition at 10 µM
[8] = DRUGMATRIX: Phorbol Ester radioligand binding (ligand: [3H] PDBu); type: cell membranes, Mus musculus, ICR, Brain, Membrane; conditions: Not Active = under 50% inhibition at 10 µM
[9] = target: Matrix metalloproteinase-9 (Homo sapiens, UniProt P14780); type: cell-based
[10] = DRUGMATRIX: Calcium Channel Type L, Phenylalkylamine radioligand binding (ligand: [3H] (-)-Desmethoxyverapamil (D-888)); type: cell membranes, Rattus norvegicus, Wistar, Brain, Membrane; conditions: Not Active = under 50% inhibition at 10 µM

Matrix metalloproteinase-9, sequence (P14780 whole entry): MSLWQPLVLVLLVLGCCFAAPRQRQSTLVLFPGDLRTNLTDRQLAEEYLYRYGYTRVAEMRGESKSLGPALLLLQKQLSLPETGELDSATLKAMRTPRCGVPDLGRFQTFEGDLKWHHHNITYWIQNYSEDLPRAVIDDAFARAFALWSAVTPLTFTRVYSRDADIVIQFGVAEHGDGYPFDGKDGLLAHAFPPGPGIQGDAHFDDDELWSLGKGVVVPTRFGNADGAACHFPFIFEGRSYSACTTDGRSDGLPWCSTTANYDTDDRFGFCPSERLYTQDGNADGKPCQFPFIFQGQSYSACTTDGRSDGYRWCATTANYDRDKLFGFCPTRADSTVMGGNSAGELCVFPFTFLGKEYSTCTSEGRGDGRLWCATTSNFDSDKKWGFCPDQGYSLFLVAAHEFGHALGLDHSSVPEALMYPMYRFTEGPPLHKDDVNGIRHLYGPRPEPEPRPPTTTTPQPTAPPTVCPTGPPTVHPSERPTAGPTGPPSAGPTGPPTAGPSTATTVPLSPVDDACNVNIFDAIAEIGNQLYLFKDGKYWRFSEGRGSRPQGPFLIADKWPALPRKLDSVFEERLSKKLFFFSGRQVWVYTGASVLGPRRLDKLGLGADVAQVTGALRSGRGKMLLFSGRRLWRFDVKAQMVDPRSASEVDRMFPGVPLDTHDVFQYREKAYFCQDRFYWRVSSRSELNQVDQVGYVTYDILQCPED
Cytochrome P450 2C9, sequence (P11712 whole entry): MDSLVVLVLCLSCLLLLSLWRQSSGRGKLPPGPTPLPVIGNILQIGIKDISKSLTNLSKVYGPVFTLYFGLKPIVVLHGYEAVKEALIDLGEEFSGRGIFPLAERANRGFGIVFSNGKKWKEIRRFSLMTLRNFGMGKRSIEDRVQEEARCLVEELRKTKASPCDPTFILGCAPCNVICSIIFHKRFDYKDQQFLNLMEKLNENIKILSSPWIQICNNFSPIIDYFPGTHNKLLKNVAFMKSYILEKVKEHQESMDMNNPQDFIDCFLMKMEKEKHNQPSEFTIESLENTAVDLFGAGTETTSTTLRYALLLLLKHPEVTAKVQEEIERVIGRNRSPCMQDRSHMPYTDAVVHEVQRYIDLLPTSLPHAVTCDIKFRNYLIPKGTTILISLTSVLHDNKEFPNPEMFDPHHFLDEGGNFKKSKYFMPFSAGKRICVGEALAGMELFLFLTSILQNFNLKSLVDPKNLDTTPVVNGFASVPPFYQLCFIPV
Sigma non-opioid intracellular receptor 1, sequence (Q99720 whole entry): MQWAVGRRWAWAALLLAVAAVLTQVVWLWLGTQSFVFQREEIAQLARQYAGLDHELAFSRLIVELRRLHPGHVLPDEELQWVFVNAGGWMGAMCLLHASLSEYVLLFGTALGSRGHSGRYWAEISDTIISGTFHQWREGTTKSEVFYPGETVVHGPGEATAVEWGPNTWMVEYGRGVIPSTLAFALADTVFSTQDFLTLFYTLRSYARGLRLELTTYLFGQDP
Cytochrome P450 2D6, sequence (P10635 whole entry): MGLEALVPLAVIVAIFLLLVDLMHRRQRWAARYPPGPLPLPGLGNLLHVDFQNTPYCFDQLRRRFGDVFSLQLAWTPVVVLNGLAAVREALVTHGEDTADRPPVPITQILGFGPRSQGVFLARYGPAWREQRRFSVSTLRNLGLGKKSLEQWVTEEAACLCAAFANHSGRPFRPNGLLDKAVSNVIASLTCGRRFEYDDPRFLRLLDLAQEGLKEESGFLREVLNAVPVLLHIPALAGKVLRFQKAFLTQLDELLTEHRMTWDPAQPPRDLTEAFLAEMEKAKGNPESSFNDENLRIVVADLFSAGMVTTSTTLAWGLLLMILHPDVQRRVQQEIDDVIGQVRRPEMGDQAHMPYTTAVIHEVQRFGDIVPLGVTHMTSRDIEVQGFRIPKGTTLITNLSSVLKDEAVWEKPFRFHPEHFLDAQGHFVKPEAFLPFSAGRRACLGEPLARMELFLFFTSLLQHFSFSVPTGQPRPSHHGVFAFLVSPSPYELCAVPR

Substance	IC50 [1]	Ki [1]	IC50 [2]	Ki [2]	IC50 (Cytochrome P450 2C9)	Ki (Cytochrome P450 2C9)	IC50 [3]	Ki [3]	IC50 [4]	Ki [4]	IC50 [5]	Ki [5]	IC50 [6]	Ki [6]	IC50 (Cytochrome P450 2D6)	Ki (Cytochrome P450 2D6)	IC50 (Calcitonin receptor)	Ki (Calcitonin receptor)	IC50 [7]	Ki [7]	other results
GOLD SODIUM THIOMALATE	Not Active	Not Active	Not Active	Not Active	Not Active	Not Active	Not Active	Not Active	Not Active	Not Active	Not Active	Not Active	Not Active	Not Active	Not Active	Not Active	Not Active	Not Active	Not Active	Not Active	IC50 (Adenosine receptor A3; read-out: IC50): 1490 nM; Ki (Adenosine receptor A3; read-out: Ki): 843 nM; IC50 [8]: Not Active; Ki [8]: Not Active; IC50 [9]: Not Active; Ki [9]: Not Active; IC50 [10]: Not Active; Ki [10]: Not Active
OXALIPLATIN	Not Active	Not Active	Not Active	Not Active	Not Active	Not Active	Not Active	Not Active	Not Active	Not Active	Not Active	Not Active	Not Active	Not Active	Not Active	Not Active	Not Active	Not Active	Not Active	Not Active	IC50 (Adenosine receptor A3): Not Active; Ki (Adenosine receptor A3): Not Active; IC50 [8]: Not Active; Ki [8]: Not Active; IC50 [9]: Not Active; Ki [9]: Not Active; IC50 [10]: Not Active; Ki [10]: Not Active
